According to ChEMBL document CHEMBL1649577, “Influence of recombination on development of mutational resistance to linezolid in Enterococcus faecalis JH2-2” (2009):
≈ marks a conversion by molar mass, not a printed value.

Legend:
Format in all cases: functional
[1] = system: Enterococcus faecalis; assay: Antimicrobial activity against Enterococcus faecalis JH2-2 harboring nucleotides at position 2576 in rrlA 2576T, rrlB 2576G, rrlC 2576G/T and rrlD 2576T after 6, 8 passages under Linezolid selective pressure by agar dilution method
[2] = system: Enterococcus faecalis; assay: Antimicrobial activity against recombination-deficient Enterococcus faecalis JH2-2 recA harboring nucleotides at position 2576 in rrlA 2576T, rrlB 2576G, rrlC 2576T and rrlD 2576T after 10, 11 passages under Linezolid selective pressure by agar dilution method
[3] = system: Enterococcus faecalis; assay: Antimicrobial activity against Enterococcus faecalis JH2-2 harboring nucleotides at position 2576 in rrlA 2576T, rrlB 2576G, rrlC 2576T and rrlD 2576T after 9, 10, 11 passages under Linezolid selective pressure by agar dilution method

CC(=O)NC[C@H]1CN(c2ccc(N3CCOCC3)c(F)c2)C(=O)O1 [LINEZOLID]
MIC [1]: 32 µg/mL (≈ 94.9 µM) | MIC [2]: 32 µg/mL | MIC [3]: 64 µg/mL (≈ 190 µM)
